Tests used:
[1] = molecular target: T1, p34^cdc2 (Homo sapiens, UniProt P06493); test: H1 histone kinase assay of p34cdc2 immunoprecipitated from treated HCT116 cells; type: cell-based
T1 construct: p34^cdc2 that was immunoprecipitated from HCT116 cells treated with vehicle for 6 to 48 hours consistently phosphorylated histone H1; endogenous in cells; host or cells: HCT116 colorectal carcinoma cells
Protocol: As shown in FIG. 2C (lanes labeled None), p34^cdc2 that was immunoprecipitated from HCT116 cells treated with vehicle for 6 to 48 hours consistently phosphorylated histone H1.

[2] = test system: wild-type (WT) or GSK3β^−/− primary murine embryonic fibroblasts (MEF) cells; test: Western blotting of p53 in wild-type or GSK3β-/- primary MEF cells; type: cell-based; parameters: dose or concentration left out as unconfirmed; settings: Purvalanol A, 6-24 hour
Text: To confirm the link between GSK3β inhibition and p53 modulation in vivo, p53^+/+ HCT116 cells were transfected with wild-type GSK3β or a kinase-dead GSK3β dominant negative mutant (GSK3β DN mutant), previously described in Pap and Cooper, J. Biol. Chem., 273:19929-19932 (1998). Non-transformed wild-type (WT) or GSK3β^−/− primary murine embryonic fibroblasts (MEF) cells, described in Hoeflich et al., Nature, 406:86-90 (2000), were maintained in culture in DMEM supplemented with 10% FCS, 100 U/ml penicillin, and 100 μg/ml streptomycin (all from Invitrogen) in 5% CO2 at 37° C. […] Western blotting was performed as described in Example 2, to evaluate the expression of p53, p21^Waf1/Cip1 or β-actin at 6-24 hour intervals.

[3] = test system: p53^+/+ HCT116 cells; test: Hypodiploid DNA content by propidium iodide staining and flow cytometry, p53+/+ HCT116; type: cell-based; settings: 0-20 μM, 48 hours
Protocol: Cells were collected and centrifuged at 3,000 rpm for 5 minutes at 4° C., and washed in PBS (pH 7.2). The cell pellet was solubilized in lysis buffer (20 mM Tris, pH 7.2, 0.5% deoxycholate, 1% Triton X-100, 0.1% SDS, 150 mM NaCl, 1 mM EDTA) containing proteases inhibitors (Complete, Roche Applied Science) for 30 min at 4° C. The lysate was cleared by centrifugation for 15 minutes, and protein concentration was evaluated using a Bio-Rad protein assay system (Bio-Rad Laboratories, Hercules, Calif.). […] Cells were analyzed for hypodiploid DNA content by propidium iodide staining and flow cytometry as described in O'Connor et al., Cancer Cell, 2:43-54 (2002). […]
(§1) The functional consequences of GSK3β inhibition were explored. […] Alternatively, cells were incubated with GSK3β inhibitors LiCl (30 mM) or TDZD (20 μM), harvested after 48 hours and analyzed for cell viability (propidium iodide, red channel) and active caspase-3/7 activity (green channel, […]®, from Chemicon International Inc., Temecula, Calif.), by multiparametric flow cytometry as reported previously in Kim et al., Lancet, 362:205-209 (2003).

[4] = test system: p53^−/− HCT116 cells; test: Hypodiploid DNA content by propidium iodide staining and flow cytometry, p53-/- HCT116; type: cell-based
Protocol: Cells were collected and centrifuged at 3,000 rpm for 5 minutes at 4° C., and washed in PBS (pH 7.2). The cell pellet was solubilized in lysis buffer (20 mM Tris, pH 7.2, 0.5% deoxycholate, 1% Triton X-100, 0.1% SDS, 150 mM NaCl, 1 mM EDTA) containing proteases inhibitors (Complete, Roche Applied Science) for 30 min at 4° C. The lysate was cleared by centrifugation for 15 minutes, and protein concentration was evaluated using a Bio-Rad protein assay system (Bio-Rad Laboratories, Hercules, Calif.). Samples (30 μg) were separated by SDS-polyacrylamide gel, transferred to nylon membranes (Millipore), and incubated with primary antibodies to p53 (Oncogene Research Products, FL-393, Santa Cruz Biotechnology, Inc., Santa Cruz, Calif.), p21^Waf1/Cip1 (Oncogene Research Products), XIAP (BD Transduction Laboratories), survivin (NOVUS Biologicals, Littleton, Colo.), MDM2 (Santa Cruz Biotechnology, Inc.), p14^ARF (NOVUS Biologicals), caspase-3 (Cell Signaling Technology), cleaved caspase-3 (Cell Signaling Technology), β-catenin (BD Transduction Laboratories), cyclin B1 (GNS1, Santa Cruz Biotechnology, Inc.), GSK3β (Santa Cruz Biotechnology, Inc.), or β-sactin (Sigma) with detection of reactive bands by chemiluminescence (Amersham). Cells were analyzed for hypodiploid DNA content by propidium iodide staining and flow cytometry as described in O'Connor et al., Cancer Cell, 2:43-54 (2002). Chemicals whose source is not explicitly listed were or can be obtained from Sigma.
as §1, with “explored. Source and maintenance of p53^+/+ and p53^−/− HCT116 colorectal carcinoma cells were as described in Example 2.” for “explored.”, “(2003). […]” for “(2003).”

[5] = molecular target: T2, GSK3β (Homo sapiens, UniProt P49841); settings: battery of kinase substrates, Bain et al.; cited from earlier work
T2 sequence (P49841 whole entry): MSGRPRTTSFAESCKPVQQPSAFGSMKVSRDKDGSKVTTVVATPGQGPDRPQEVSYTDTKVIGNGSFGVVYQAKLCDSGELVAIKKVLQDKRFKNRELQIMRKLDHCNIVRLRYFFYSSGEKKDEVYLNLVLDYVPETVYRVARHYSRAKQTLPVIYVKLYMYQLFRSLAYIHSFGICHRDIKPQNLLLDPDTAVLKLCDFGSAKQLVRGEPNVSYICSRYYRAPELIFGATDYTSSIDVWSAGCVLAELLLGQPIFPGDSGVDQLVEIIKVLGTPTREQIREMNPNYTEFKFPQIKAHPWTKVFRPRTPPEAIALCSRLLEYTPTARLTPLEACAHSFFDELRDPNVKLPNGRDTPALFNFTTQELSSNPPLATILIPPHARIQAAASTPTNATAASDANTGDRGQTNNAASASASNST

[6] = molecular target: Cdk2 (Homo sapiens, UniProt P24941); settings: in vivo, Knockaert et al.; cited from earlier work
[7] = test system: p42/p44 MAP kinase; settings: in vivo, Knockaert et al.; cited from earlier work
[8] = molecular target: T2, GSK3β; test: Immunoprecipitation and GSK3β kinase assay using glycogen synthase-derived peptide substrate, from treated HCT116 cells; type: cell-based; parameters: harvested after 6 or 12 hours, and immunoprecipitated with an antibody to GSK3β; endogenous in cells; host or cells: HCT116 (p53+/+) colorectal carcinoma cells; settings: p53+/+ HCT116 cells; Purvalanol A 10 μM, LiCl 30 mM, TDZD 20 μM; 6 or 12 hours
Protocol: Immune complexes were mixed with a synthetic peptide containing a GSK3β phosphorylation site derived from the sequence of glycogen synthase (Upstate Biotechnology) in the presence of 10 μCi of γ-^32P-ATP (Amersham Corp., Piscataway, N.J.), after 30 min incubation at 30° C., the reaction mixtures were centrifuged briefly, and 15 μl of the supernatant was spotted onto P81 phosphocellulose paper (Whatman Inc., Clifton, N.J.). The membrane was washed three times with 175 mM phosphoric acid, rinsed once in acetone, and dried. Changes in peptide phosphorylation under the various conditions tested were determined by scintillation counting. Data were analyzed using the unpaired t test on a Graphpad Prism software package for Windows (Graphpad Inc., San Diego, Calif.). A P value of 0.05 was considered as statistically significant.

T1 sequence (P06493 whole entry): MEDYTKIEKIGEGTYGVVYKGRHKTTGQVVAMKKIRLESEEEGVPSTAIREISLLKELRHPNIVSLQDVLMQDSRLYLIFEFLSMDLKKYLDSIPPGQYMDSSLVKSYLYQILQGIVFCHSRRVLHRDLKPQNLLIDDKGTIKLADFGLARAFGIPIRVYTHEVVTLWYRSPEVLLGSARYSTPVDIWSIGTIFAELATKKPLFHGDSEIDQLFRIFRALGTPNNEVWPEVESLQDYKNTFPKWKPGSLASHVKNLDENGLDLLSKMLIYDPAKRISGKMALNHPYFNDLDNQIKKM
T1 sequence (P14635 whole entry partner): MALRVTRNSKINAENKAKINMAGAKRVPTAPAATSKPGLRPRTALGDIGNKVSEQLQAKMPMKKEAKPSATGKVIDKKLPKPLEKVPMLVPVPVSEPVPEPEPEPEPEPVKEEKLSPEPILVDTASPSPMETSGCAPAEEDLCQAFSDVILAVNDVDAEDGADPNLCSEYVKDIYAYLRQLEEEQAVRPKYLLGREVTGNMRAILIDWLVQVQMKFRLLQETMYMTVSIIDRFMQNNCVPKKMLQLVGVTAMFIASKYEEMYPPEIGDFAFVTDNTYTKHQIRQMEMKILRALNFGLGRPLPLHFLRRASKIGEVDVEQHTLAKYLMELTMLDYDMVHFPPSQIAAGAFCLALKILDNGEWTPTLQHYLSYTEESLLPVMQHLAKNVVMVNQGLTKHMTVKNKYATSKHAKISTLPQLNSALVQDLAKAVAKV

For `CC(C)[C@H](CO)Nc1nc(Nc2cccc(Cl)c2)c2ncn(C(C)C)c2n1` [Purvalanol A], the “p34^cdc2 kinase activity (histone H1 phosphorylation)” value ([1]; 6 and 12 hours of treatment) was “no apparent inhibition of p34^cdc2 kinase activity”, the “p34^cdc2 kinase activity (histone H1 phosphorylation)” value ([1]; 24 and 48 hours of treatment) was “did appear to suppress histone H1 phosphorylation” and the “p53 expression (Western blot)” value [2] was “did not further modulate p53 expression”. The “apoptosis (hypodiploid DNA content)” value [3] was “concentration-dependent induction of apoptosis”, the “apoptosis / cell death (hypodiploid DNA content)” value ([4]; 0-20 μM, 48 hours) was “largely resistant to Purvalanol A-induced cell death” and the “cell cycle effect (DNA content)” value ([4]; 0-20 μM, 48 hours) was “sustained G2/M arrest”. The “enhancement of cell death in survivin-ablated (S4) vs VIII transfectants treated with Purvalanol A” value ([4]; survivin RNAi (S4), Purvalanol A 5 μM, 24 hour) was 2.5 fold, the “activity against GSK3β in vitro” value [5] was “not active against GSK3β” and the “suppression of Cdk2” value [6] was “equally effective”. For the same molecule, the “suppression of p42/p44 MAP kinase” value [7] was “equally effective” and the “GSK3β kinase activity (peptide phosphorylation)” value [8] was “potently inhibited GSK3β kinase activity”.

Reference: US20060204980A1, “Colorectal cancer therapies” (priority 2004, published 2006)
